Measured values reported in patent US20250075056A1, “IMIDAZOLYSIS OF POLYESTERS AND POLYURETHANES” (The Board of Trustees of The University of Alabama, priority 2023, published 2025).
Read-outs that look alike come from different tables or passages of the source.

Assays:
[1] = Solubility of TBIs in common solvents; assay type: physicochemical
[2] = imidazole reagent, literature refs 58-60, cited from earlier work
[3] = organic solvent or mixture, solvent Ethanol, read-out: Solubility in Ethanol
[4] = solvent DI Water, read-out: Solubility in DI Water

| Compound | solubility [1, 3] | solubility [1, 4] | pKa [2] | also measured |
| --- | --- | --- | --- | --- |
| Cc1ncc[nH]1 [2a, 2-Methyl imidazole] |  |  | 7.85-8.10 | pKa ([2]; listed as 2-methylimidazole): 8.1 |
| CCc1ncc[nH]1 [3a, 2-Ethyl imidazole] |  |  | 7.99-8 |  |
| Cc1c[nH]cn1 [4a, 4-Methyl imidazole] |  |  | 7.69-7.80 |  |
| CC(C)c1ncc[nH]1 [5a, 2-Isopropyl imidazole] |  |  | 7.97 |  |
| Cc1nc(C)c(C)[nH]1 [6a, 2,4,5-Trimethyl imidazole] |  |  | 8.92 |  |
| CCc1nc(C)c[nH]1 [7a, 2-Ethyl-4-methyl imidazole] |  |  | 8.68 |  |
| c1ccc(-c2ncc[nH]2)cc1 [8a, 2-Phenyl imidazole] |  |  | 6.44 |  |
| Imidazole [1a] |  |  | ~7 |  |

More lines, main results first:

| solubility [1, 3] | solubility [1, 4] | Compound | pKa [2] | also measured |
| --- | --- | --- | --- | --- |
| > 1000 µg/mL | > 1000 µg/mL | O=C(c1ccc(C(=O)n2ccnc2)cc1)n1ccnc1 [1b, 1,1′-(1,4-Phenylene)bis[1-(1H-imidazol-1-yl)methanone]] |  | Solubility on contact with H2O ([1]; DI H2O): solubilize |
| > 1000 µg/mL | > 1000 µg/mL | Cc1nccn1C(=O)c1ccc(C(=O)n2ccnc2C)cc1 [2b] |  |  |
| > 1000 µg/mL | > 1000 µg/mL | CCc1nccn1C(=O)c1ccc(C(=O)n2ccnc2CC)cc1 [3b] |  |  |
| > 1000 µg/mL | > 1000 µg/mL | Cc1cn(C(=O)c2ccc(C(=O)n3cnc(C)c3)cc2)cn1 [4b] |  |  |
| < 1000 µg/mL | < 1000 µg/mL | CC(C)c1nccn1C(=O)c1ccc(C(=O)n2ccnc2C(C)C)cc1 [5b] |  |  |
| > 1000 µg/mL | > 1000 µg/mL | Cc1nc(C)n(C(=O)c2ccc(C(=O)n3c(C)nc(C)c3C)cc2)c1C [6b] |  |  |
| < 1000 µg/mL | > 1000 µg/mL | CCc1nc(C)cn1C(=O)c1ccc(C(=O)n2cc(C)nc2CC)cc1 [7b] |  |  |
| < 1000 µg/mL | < 1000 µg/mL | O=C(c1ccc(C(=O)n2ccnc2-c2ccccc2)cc1)n1ccnc1-c1ccccc1 [8b] |  | Solubility in typical aromatic organic solvents ([1]; e.g., toluene, xylene): moderately soluble |
